What all share (experiment): Disruption of BRAF RBD interaction with Ras (FRET / MOA assay, with Cyclophilin A)
Type in all cases: biochemical

One assay concerns the target KRAS G12D (Homo sapiens, UniProt P01116+P62937, G12D). The following applies: read-out: KRAS G12D FRET data, IC50. From the text:
(§1) This protocol may also be executed substituting other Ras proteins or nucleotides.
(§2) The purpose of this biochemical assay was to measure the ability of test compounds to facilitate ternary complex formation between a nucleotide-loaded K-Ras isoform and Cyclophilin A; the resulting ternary complex disrupts binding to a BRAF^RBD construct, inhibiting K-Ras signaling through a RAF effector. Data is reported as IC50 values.
(§3) Compound was present in plate wells as a 10-point 3-fold dilution series starting at a final concentration of 30 μM. After incubation at 25° C. for 3 hours, a mixture of Anti-His Eu-W1024 and anti-GST allophycocyanin was then added to assay sample wells at final concentrations of 10 nM and 50 nM, respectively, and the reaction incubated for an additional 1.5 hours. […] Compounds that facilitate disruption of a K-Ras:RAF complex were identified as those eliciting a decrease in the TR-FRET ratio relative to DMSO control wells.
(§4) The purpose of this biochemical assay was to measure the ability of test compounds to facilitate ternary complex formation between a nucleotide-loaded K-Ras isoform and Cyclophilin A; the resulting ternary complex disrupts binding to a BRAF^RBDD construct, inhibiting K-Ras signaling through a RAF effector. Data is reported as IC50 values.

The target of another assay is KRAS G12C (Homo sapiens, UniProt P01116+P62937, G12C). Particulars: KRAS G12C; read-out: KRAS G12C FRET data IC50.
Description: as §1, §2, §3, §4

For another assay, the target named is KRAS G12S (Homo sapiens, UniProt P01116+P62937, G12S). The following applies: read-out: KRAS G12S FRET data, IC50.
Description: as §1, §2, §3, §4

In a further assay the target is KRAS G12V (Homo sapiens, UniProt P01116+P62937, G12V). The following applies: KRAS G12V; read-out: KRAS G12V FRET data IC50.
Description: as §1, §2, §3, §4

Another assay deals with KRAS G13C (Homo sapiens, UniProt P01116+P62937, G13C). Particulars: KRAS G13C; read-out: KRAS G13C FRET data IC50.
Description: as §1, §2, §3, §4

A further assay deals with KRAS WT (Homo sapiens, UniProt P01116+P62937). Particulars: KRAS WT; read-out: KRAS WT FRET data IC50.
Description: as §1, §2, §3, §4

The values below come from patent publication US20230233569A1 (Revolution Medicines, Inc., priority 2020, published 2023).

Where “and” joins values, the source holds several entries; their conditions need not be identical. Equal values may be shown once.

Chain of KRAS G13C (P01116 1-169 isoform P01116-2 G13C): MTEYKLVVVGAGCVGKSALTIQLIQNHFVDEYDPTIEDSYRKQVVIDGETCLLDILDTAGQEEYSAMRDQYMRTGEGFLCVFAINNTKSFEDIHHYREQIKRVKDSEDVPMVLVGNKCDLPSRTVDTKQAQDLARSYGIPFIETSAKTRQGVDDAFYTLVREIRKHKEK
Chain of KRAS G13C (P62937 whole entry): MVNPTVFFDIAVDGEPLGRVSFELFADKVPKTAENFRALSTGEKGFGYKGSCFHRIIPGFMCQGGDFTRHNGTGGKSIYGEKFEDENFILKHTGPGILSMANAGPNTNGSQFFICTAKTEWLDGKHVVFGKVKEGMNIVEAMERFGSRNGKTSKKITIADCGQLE
Chain of KRAS G12C (P01116 1-169 isoform P01116-2 G12C): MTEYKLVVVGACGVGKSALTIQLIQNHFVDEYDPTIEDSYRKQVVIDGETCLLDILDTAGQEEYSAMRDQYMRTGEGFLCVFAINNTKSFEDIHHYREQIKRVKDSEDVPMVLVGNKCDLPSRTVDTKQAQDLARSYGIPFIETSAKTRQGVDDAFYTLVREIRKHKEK
Chain of KRAS G12C (P62937 whole entry): as the sequence (P62937 whole entry) above
Chain of KRAS G12D (P01116 1-169 isoform P01116-2 G12D limits assumed): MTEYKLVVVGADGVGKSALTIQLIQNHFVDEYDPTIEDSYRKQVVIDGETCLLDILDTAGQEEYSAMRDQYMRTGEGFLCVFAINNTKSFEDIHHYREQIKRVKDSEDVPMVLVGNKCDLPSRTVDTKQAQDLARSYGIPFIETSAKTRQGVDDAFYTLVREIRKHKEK
Chain of KRAS G12D (P62937 whole entry): as the sequence (P62937 whole entry) above
Chain of KRAS WT (P01116 1-169 isoform P01116-2 limits assumed): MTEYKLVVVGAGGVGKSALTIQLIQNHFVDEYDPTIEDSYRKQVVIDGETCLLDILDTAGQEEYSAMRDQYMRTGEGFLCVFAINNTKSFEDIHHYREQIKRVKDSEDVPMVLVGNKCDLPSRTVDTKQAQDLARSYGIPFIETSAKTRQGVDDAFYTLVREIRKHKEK
Chain of KRAS WT (P62937 whole entry): as the sequence (P62937 whole entry) above
Chain of KRAS G12S (P01116 1-169 isoform P01116-2 G12S limits assumed): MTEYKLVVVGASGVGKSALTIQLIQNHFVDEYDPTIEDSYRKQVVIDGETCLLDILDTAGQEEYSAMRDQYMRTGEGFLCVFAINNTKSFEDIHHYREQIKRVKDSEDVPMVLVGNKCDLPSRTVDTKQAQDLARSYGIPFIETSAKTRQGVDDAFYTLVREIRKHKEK
Chain of KRAS G12S (P62937 whole entry): as the sequence (P62937 whole entry) above
Chain of KRAS G12V (P01116 1-169 isoform P01116-2 G12V limits assumed): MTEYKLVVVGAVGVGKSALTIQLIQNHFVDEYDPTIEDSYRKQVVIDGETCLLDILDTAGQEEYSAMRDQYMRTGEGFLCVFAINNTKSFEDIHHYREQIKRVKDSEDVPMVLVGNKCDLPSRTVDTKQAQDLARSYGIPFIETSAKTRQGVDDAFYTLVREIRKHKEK
Chain of KRAS G12V (P62937 whole entry): as the sequence (P62937 whole entry) above

By IC50 is commonly meant the concentration that gives 50% inhibition. `C=C(C)C(=O)N1CC(N(C)C(=O)N(C)[C@H](C(=O)N[C@H]2Cc3nc(cs3)-c3ccc4c(c3)c(c(-c3cccnc3[C@H](C)OC)n4CC)CC(C)(C)COC(=O)[C@@H]3CCCN(N3)C2=O)C(C)C)C1` (atropisomer, axis not shown) [Example A360]: the IC50 on KRAS G12D lay in the range of 1 to 10 µM.
On to `C=CC(=O)N1CC[C@H](C(=O)N(C)[C@H](C(=O)N[C@H]2Cc3cc(O)cc(c3)-c3ccc4c(c3)c(c(-c3ccncc3CCOC)n4CC)CC(C)(C)COC(=O)[C@@H]3CCCN(N3)C2=O)C(C)C)C1` (single isomer, unassigned) [Example A048], for which the IC50 on KRAS G12C is 10 to 100 nM and 1000 to 10000 nM; at KRAS G12D, 1 to 10 µM and > 10 µM; on KRAS G12S it was 100 to 1000 nM and > 10000 nM; at KRAS G12V, 100 to 1000 nM and > 10000 nM; at KRAS G13C, 100 to 1000 nM and > 10000 nM; at KRAS WT it was 1 to 10 µM and > 10 µM.
In the case of `C=CC(=O)N1CC[C@H](C(=O)N(C)[C@H](C(=O)N[C@H]2Cc3cc(O)cc(c3)-c3ccc4c(c3)c(c(-c3ccc(CN(C)C)cc3)n4CC)CC(C)(C)COC(=O)[C@@H]3CCCN(N3)C2=O)C(C)C)C1` [Example A003], the IC50 on KRAS G12C was 100 to 1000 nM; on KRAS G12D, above 10 µM; at KRAS G12S, 1000 to 10000 nM; on KRAS G12V, 1000 to 10000 nM; at KRAS G13C, 1000 to 10000 nM; on KRAS WT, above 10 µM.
On to `C=CC(=O)N1CC[C@H](C(=O)N(C)[C@H](C(=O)N[C@H]2Cc3cc(O)cc(c3)-c3ccc4c(c3)c(c(-c3ccccc3CN(C)C)n4CC)CC(C)(C)COC(=O)[C@@H]3CCCN(N3)C2=O)C(C)C)C1` [Example A005], for which the half-inhibitory concentration (IC50) was 10 to 100 nM on KRAS G12C; 1 to 10 µM on KRAS G12D; 100 to 1000 nM at KRAS G12S; 100 to 1000 nM on KRAS G12V; 100 to 1000 nM on KRAS G13C; 0.1 to 1 µM on KRAS WT.
Consider `C=CC(=O)N1CC[C@H](C(=O)N(C)[C@H](C(=O)N[C@H]2Cc3cc(OC(=O)CN)cc(c3)-c3ccc4c(c3)c(c(-c3ccccc3CCOC)n4CC)CC(C)(C)COC(=O)[C@@H]3CCCN(N3)C2=O)C(C)C)C1` [Example A008], for which the IC50 on KRAS G12C was 100 to 1000 nM; on KRAS G12D, above 10 µM; at KRAS G12S it was 1000 to 10000 nM; at KRAS G12V it was 1000 to 10000 nM; on KRAS G13C it was 1000 to 10000 nM; on KRAS WT, 1 to 10 µM.
For the compound `C=CC(=O)N1CC[C@H](C(=O)N(C)[C@H](C(=O)N[C@H]2Cc3cc(cc(O)c3F)-c3ccc4c(c3)c(c(-c3ccccc3CCOC)n4CC)CC(C)(C)COC(=O)[C@@H]3CCCN(N3)C2=O)C(C)C)C1` [Example A009], the half-maximal inhibitory concentration (IC50) on KRAS G12C is 1000 to 10000 nM; on KRAS G12D, above 10 µM; on KRAS G12S it was above 10000 nM; on KRAS G12V it was above 10000 nM; at KRAS G13C it was above 10000 nM; on KRAS WT it was above 10 µM.
In the case of `C=CC(=O)N1CC[C@H](C(=O)N(C)[C@H](C(=O)N[C@H]2Cc3cc(O)cc(c3)-c3ccc4c(c3)c(c(-c3ccc(CN5CCCC5)cc3)n4CC)CC(C)(C)COC(=O)[C@@H]3CCCN(N3)C2=O)C(C)C)C1` [Example A010], the half-inhibitory concentration (IC50) on KRAS G12C was 100 to 1000 nM; at KRAS G12D, above 10 µM; on KRAS G12S, 1000 to 10000 nM; at KRAS G12V, 1000 to 10000 nM; on KRAS G13C it was 1000 to 10000 nM; on KRAS WT it was 1 to 10 µM.
For `C=CC(=O)N1CCCN(C(=O)N(C)[C@H](C(=O)N[C@H]2Cc3cc(O)cc(c3)-c3ccc4c(c3)c(c(-c3ccccc3CCOC)n4CC)CC(C)(C)COC(=O)[C@@H]3CCCN(N3)C2=O)C(C)C)CC1` [Example A013], the half-maximal inhibitory concentration (IC50) at KRAS G12C was 100 to 1000 nM; at KRAS G12D it was above 10 µM; on KRAS G12S, 1000 to 10000 nM; on KRAS G12V it was 1000 to 10000 nM; at KRAS G13C, 100 to 1000 nM; at KRAS WT it was 1 to 10 µM.
Take `C=CC(=O)N1CCC(C(=O)N(C)[C@H](C(=O)N[C@H]2Cc3cc(O)cc(c3)-c3ccc4c(c3)c(c(-c3ccccc3CCOC)n4CC)CC(C)(C)COC(=O)[C@@H]3CCCN(N3)C2=O)C(C)C)CC1` [Example A014]: the IC50 is 100 to 1000 nM at KRAS G12C; above 10 µM on KRAS G12D; 1000 to 10000 nM at KRAS G12S; above 10000 nM at KRAS G12V; 1000 to 10000 nM at KRAS G13C; 1 to 10 µM on KRAS WT.
`C=CC(=O)N1CCN(C(=O)N(C)[C@H](C(=O)N[C@H]2Cc3cc(O)cc(c3)-c3ccc4c(c3)c(c(-c3ccccc3CCOC)n4CC)CC(C)(C)COC(=O)[C@@H]3CCCN(N3)C2=O)C(C)C)CC1` [Example A018]: the IC50 at KRAS G12C was 100 to 1000 nM; at KRAS G12D, above 10 µM; at KRAS G12S it was 1000 to 10000 nM; on KRAS G12V, 1000 to 10000 nM; at KRAS G13C, 100 to 1000 nM; on KRAS WT, 1 to 10 µM.
